Test results from PMC13266984 (Journal of medicinal chemistry, 2026).
Where “and” joins values, the source holds several entries; their conditions need not be identical. Equal values may be shown once.

What was measured:
[1] = biological target: T1, Human ALDH3A1 (Homo sapiens, UniProt P30838); test: ALDH3A1 biochemical assay (benzaldehyde/NADP+, diaphorase-resazurin readout, 1,536-well); settings: for IC50Ratio: 20X[SUB] vs 1X[SUB] benzaldehyde; for Efficacy: Table S5, biochemical; for CC-v2: Table S5, biochemical curve class; for LLE: Table S7, pAC50 − cLogP; for inhibition mechanism (benzaldehyde substrate shift): retested at 4,000 μM benzaldehyde
T1 sequence (P30838 1-453): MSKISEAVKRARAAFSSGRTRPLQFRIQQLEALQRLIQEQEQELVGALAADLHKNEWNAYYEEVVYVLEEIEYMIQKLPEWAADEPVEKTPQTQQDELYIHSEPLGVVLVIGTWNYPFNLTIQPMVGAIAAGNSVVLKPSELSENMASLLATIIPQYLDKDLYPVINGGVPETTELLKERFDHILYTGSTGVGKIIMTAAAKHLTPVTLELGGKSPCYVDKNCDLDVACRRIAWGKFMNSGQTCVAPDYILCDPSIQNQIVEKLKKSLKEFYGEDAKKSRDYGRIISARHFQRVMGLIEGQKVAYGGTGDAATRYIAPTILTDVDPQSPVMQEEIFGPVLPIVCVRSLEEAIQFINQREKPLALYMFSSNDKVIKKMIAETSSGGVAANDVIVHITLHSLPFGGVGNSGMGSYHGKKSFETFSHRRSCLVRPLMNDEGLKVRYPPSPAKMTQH

[2] = pION μSOL kinetic aqueous solubility; format: physicochemical; settings: in words; pH7.4
[3] = biological target: T2, OE19 (3A1) (Homo sapiens, UniProt P30838); test: Cellular ALDEFLUOR assay in OE19 cells (preferential ALDH3A1 expression); settings: for Cell_Efficacy: Table S5, OE19 cells; for Cell_CC-v2: Table S5, cellular curve class; for IC50: cellular IC50 (Aldefluor), OE19 cells
T2 sequence (P30838 1-453): T1 sequence (P30838 1-453)

[4] = Metabolic stability in rat liver microsome fractions; format: in vitro ADME; settings: in words
[5] = 20X[SUB] IC50 [µM], benzaldehyde 4,000 µM (~20× Km), NADP+ 1,000 µM

For O=C(NCc1cccc(C2CC2)c1)c1csc(N2CCN(c3cccc(C(F)(F)F)c3)CC2)n1 [Compound 13], which AC50 [1] is on record?
Its AC50 is 1.1 nM.

What about the IC50 [1, 5] of the same molecule?
The IC50 was 0.0316 µM.

What about the IC50Ratio [1] of the same molecule?
The IC50Ratio was 28.

And the IC50 ([1]; ALDH3A1 biochemical IC50)?
The IC50 was 0.001 µM.

What about the Efficacy [1] of the same molecule?
The Efficacy was -107.26.

And the CC-v2 [1]?
The CC-v2 was -1.1.

What about the LLE [1] of the same molecule?
The LLE was 3.663.

And the “inhibition mechanism (benzaldehyde substrate shift)” value [1]?
The value was “consistent with substrate-competitive inhibition”.

What about the kinetic aqueous solubility [2] of the same molecule?
Its kinetic aqueous solubility is “limited kinetic aqueous solubility”.

What about the AC50 [3] of the same molecule?
The AC50 was 13.6 nM.

What about the Cell_Efficacy [3] of the same molecule?
Its Cell_Efficacy is -65.41.

And the Cell_CC-v2 [3]?
Its Cell_CC-v2 is -1.2.

What about the IC50 [3] of the same molecule?
Its IC50 is 13.6 nM and 14 nM and ~14 nM.

What does the source list for Cc1nc(-c2cccc(CNC(=O)c3csc(N4CCN(c5cccc(C(F)(F)F)c5)CC4)n3)c2)cs1 [Compound 14]?
AC50 [1]: 31.6 nM; IC50 [1, 5]: 1 µM; IC50Ratio [1]: 32; IC50 ([1]; ALDH3A1 biochemical IC50): 0.0316 µM and 0.032 µM and ~0.032 µM; Efficacy [1]: -99.22; CC-v2 [1]: -1.1; LLE [1]: 1.65; inhibition mechanism (benzaldehyde substrate shift) [1]: consistent with substrate-competitive inhibition; kinetic aqueous solubility [2]: limited kinetic aqueous solubility; microsomal stability [4]: only moderate microsomal stability; AC50 [3]: 3.8 nM; Cell_Efficacy [3]: -94.02; Cell_CC-v2 [3]: -1.1; IC50 [3]: 4 nM and 3.84 nM and ~4 nM

Which results are given for Cc1ccc(CNC(=O)c2csc(N3CCN(c4cccc(C(F)(F)F)c4)CC3)n2)cc1F [NCGC01407934-01]?
AC50 [1]: 28.2 nM; Efficacy [1]: -101.06; CC-v2 [1]: -1.1; AC50 [3]: 342 nM; Cell_Efficacy [3]: -95.79; Cell_CC-v2 [3]: -1.1

Which AC50 [1] does the source give for COc1cc(C)cc(CNC(=O)c2csc(N3CCN(c4cccc(C(F)(F)F)c4)CC3)n2)c1 [NCGC01407935-01] here?
The AC50 was 14.1 nM.

And the Efficacy [1]?
The Efficacy was -100.75.

And the CC-v2 [1]?
The CC-v2 was -1.1.

And the AC50 [3]?
Its AC50 is 1080 nM.

And the Cell_Efficacy [3]?
The Cell_Efficacy was -91.56.

And the Cell_CC-v2 [3]?
Its Cell_CC-v2 is -1.1.

Which AC50 [1] does the source give for O=C(NCc1ccc(Cl)c(F)c1)c1csc(N2CCN(c3cccc(C(F)(F)F)c3)CC2)n1 [NCGC01407936-01] here?
Its AC50 is 12.6 nM.

And the Efficacy [1]?
The Efficacy was -100.15.

And the CC-v2 [1]?
The CC-v2 was -1.1.

What about the AC50 [3] of the same molecule?
Its AC50 is 965 nM.

And the Cell_Efficacy [3]?
The Cell_Efficacy was -88.16.

And the Cell_CC-v2 [3]?
The Cell_CC-v2 was -1.1.

Which AC50 [1] does the source give for O=C(NCc1cccc(N2CCC[S+]2(=O)[O-])c1)c1csc(N2CCN(c3cccc(C(F)(F)F)c3)CC2)n1 [NCGC01407948-01] here?
The AC50 was 631 nM.

And the Efficacy [1]?
Its Efficacy is -52.77.

What about the CC-v2 [1] of the same molecule?
Its CC-v2 is -1.2.

And the Cell_Efficacy [3]?
Its Cell_Efficacy is 0.00.

What about the Cell_CC-v2 [3] of the same molecule?
The Cell_CC-v2 was 5.

With O=C(NCc1ccc(F)c(F)c1)c1csc(N2CCN(c3cccc(C(F)(F)F)c3)CC2)n1 [NCGC01407951-01] as the molecule, how does the AC50 [1] read?
The AC50 was 35.5 nM.

And the Efficacy [1]?
The Efficacy was -100.75.

What about the CC-v2 [1] of the same molecule?
Its CC-v2 is -1.1.

And the AC50 [3]?
The AC50 was 4310 nM.

And the Cell_Efficacy [3]?
The Cell_Efficacy was -93.55.

What about the Cell_CC-v2 [3] of the same molecule?
Its Cell_CC-v2 is -1.3.

What does the source list for NC(=O)c1csc(N2CCN(c3cccc(C(F)(F)F)c3)CC2)n1 [NCGC01407961-01]?
Efficacy [1]: -23.04; CC-v2 [1]: 4; AC50 [3]: 28200 nM; Cell_Efficacy [3]: -38.73; Cell_CC-v2 [3]: -2.3

Which AC50 [1] does the source give for C[S+](=O)([O-])c1cccc(CNC(=O)c2csc(N3CCN(c4cccc(C(F)(F)F)c4)CC3)n2)c1 [NCGC01407971-01] here?
Its AC50 is 891 nM.

And the Efficacy [1]?
The Efficacy was -53.81.

And the CC-v2 [1]?
Its CC-v2 is -1.2.

What about the AC50 [3] of the same molecule?
The AC50 was 251 nM.

What about the Cell_Efficacy [3] of the same molecule?
The Cell_Efficacy was -83.43.

What about the Cell_CC-v2 [3] of the same molecule?
Its Cell_CC-v2 is -1.1.

For O=C(NCc1c(Cl)cccc1Br)c1csc(N2CCN(c3cccc(C(F)(F)F)c3)CC2)n1 [NCGC01407972-01], which AC50 [1] is on record?
Its AC50 is 50.1 nM.

And the Efficacy [1]?
Its Efficacy is -90.79.

And the CC-v2 [1]?
The CC-v2 was -1.1.

What about the Cell_Efficacy [3] of the same molecule?
Its Cell_Efficacy is 0.00.

And the Cell_CC-v2 [3]?
The Cell_CC-v2 was 4.

For O=C(Nc1ccc(CNC(=O)c2csc(N3CCN(c4cccc(C(F)(F)F)c4)CC3)n2)cc1)c1ccc(F)cc1 [NCGC01407975-01], which AC50 [1] is on record?
Its AC50 is 355 nM.

What about the Efficacy [1] of the same molecule?
The Efficacy was -39.06.

What about the CC-v2 [1] of the same molecule?
The CC-v2 was -1.2.

And the AC50 [3]?
The AC50 was 100 nM.

What about the Cell_Efficacy [3] of the same molecule?
The Cell_Efficacy was -85.75.

And the Cell_CC-v2 [3]?
The Cell_CC-v2 was -1.1.

For O=C(NCc1cccc(C(=O)N2CCCCC2)c1)c1csc(N2CCN(c3cccc(C(F)(F)F)c3)CC2)n1 [NCGC01407977-01], which Efficacy [1] is on record?
Its Efficacy is -16.69.

And the CC-v2 [1]?
Its CC-v2 is 4.

What about the AC50 [3] of the same molecule?
Its AC50 is 50100 nM.

And the Cell_Efficacy [3]?
Its Cell_Efficacy is -33.22.

And the Cell_CC-v2 [3]?
The Cell_CC-v2 was 5.

Which AC50 [1] does the source give for O=C(NCc1cccc(Oc2ccccc2)c1)c1csc(N2CCN(c3cccc(C(F)(F)F)c3)CC2)n1 [NCGC01407978-01] here?
Its AC50 is 17.8 nM.

What about the Efficacy [1] of the same molecule?
The Efficacy was -100.27.

What about the CC-v2 [1] of the same molecule?
Its CC-v2 is -1.1.

What about the AC50 [3] of the same molecule?
Its AC50 is 1530 nM.

And the Cell_Efficacy [3]?
The Cell_Efficacy was -119.85.

And the Cell_CC-v2 [3]?
Its Cell_CC-v2 is -2.1.

What does the source list for N#CSc1ccc(NC(=O)c2csc(N3CCN(c4cccc(C(F)(F)F)c4)CC3)n2)c(F)c1 [NCGC01407980-01]?
AC50 [1]: 15800 nM; Efficacy [1]: -102.93; CC-v2 [1]: -1.1; AC50 [3]: 44.7 nM; Cell_Efficacy [3]: -75.54; Cell_CC-v2 [3]: -1.2

For O=C(NCc1cccc(Cl)c1)c1csc(N2CCN(c3cccc(C(F)(F)F)c3)CC2)n1 [NCGC01407982-01], which AC50 [1] is on record?
The AC50 was 23.7 nM.

What about the Efficacy [1] of the same molecule?
Its Efficacy is -97.73.

What about the CC-v2 [1] of the same molecule?
Its CC-v2 is -1.1.

What about the AC50 [3] of the same molecule?
Its AC50 is 811 nM.

What about the Cell_Efficacy [3] of the same molecule?
Its Cell_Efficacy is -88.39.

What about the Cell_CC-v2 [3] of the same molecule?
The Cell_CC-v2 was -1.2.

With O=C(NCc1ccc(C(F)F)c(F)c1)c1csc(N2CCN(c3cccc(C(F)(F)F)c3)CC2)n1 [NCGC01407984-01] as the molecule, how does the AC50 [1] read?
Its AC50 is 14.1 nM.

And the Efficacy [1]?
The Efficacy was -99.03.

What about the CC-v2 [1] of the same molecule?
Its CC-v2 is -1.1.

What about the AC50 [3] of the same molecule?
Its AC50 is 242 nM.

And the Cell_Efficacy [3]?
The Cell_Efficacy was -105.03.

What about the Cell_CC-v2 [3] of the same molecule?
The Cell_CC-v2 was -2.2.

With Cc1ccccc1-c1cccc(CNC(=O)c2csc(N3CCN(c4cccc(C(F)(F)F)c4)CC3)n2)c1 [NCGC01407985-01] as the molecule, how does the AC50 [1] read?
The AC50 was 75 nM.

And the Efficacy [1]?
The Efficacy was -78.48.

And the CC-v2 [1]?
The CC-v2 was -1.2.

And the AC50 [3]?
The AC50 was 91 nM.

What about the Cell_Efficacy [3] of the same molecule?
The Cell_Efficacy was -83.99.

What about the Cell_CC-v2 [3] of the same molecule?
The Cell_CC-v2 was -1.1.

Which AC50 [1] does the source give for O=C(NCCc1cccc(OCCCc2ccccc2)c1)c1csc(N2CCN(c3cccc(C(F)(F)F)c3)CC2)n1 [NCGC01407986-01] here?
Its AC50 is 562 nM.

What about the Efficacy [1] of the same molecule?
Its Efficacy is -31.39.

And the CC-v2 [1]?
The CC-v2 was -1.2.

What about the AC50 [3] of the same molecule?
The AC50 was 501 nM.

What about the Cell_Efficacy [3] of the same molecule?
Its Cell_Efficacy is -92.16.

What about the Cell_CC-v2 [3] of the same molecule?
The Cell_CC-v2 was -1.1.

Which AC50 [1] does the source give for CC(C)(O)c1ccc(CNC(=O)c2csc(N3CCN(c4cccc(C(F)(F)F)c4)CC3)n2)cc1 [NCGC01408044-01] here?
Its AC50 is 891 nM.

And the Efficacy [1]?
The Efficacy was -74.78.

What about the CC-v2 [1] of the same molecule?
The CC-v2 was -1.2.

And the AC50 [3]?
The AC50 was 11.2 nM.

What about the Cell_Efficacy [3] of the same molecule?
Its Cell_Efficacy is -68.37.

And the Cell_CC-v2 [3]?
Its Cell_CC-v2 is 5.

What does the source list for Cc1ccc(C)n1-c1ccc(CNC(=O)c2csc(N3CCN(c4cccc(C(F)(F)F)c4)CC3)n2)cc1 [NCGC01408046-01]?
AC50 [1]: 15800 nM; Efficacy [1]: -91.30; CC-v2 [1]: -1.1; Cell_Efficacy [3]: -23.84; Cell_CC-v2 [3]: 4
